Reference: patent US3950525A, “Relaxation of smooth muscle in a mammal” (Pfizer Inc., priority 1975, dated 1976)
Structures can show the parent of a compound that is named as a salt. Where two headings read alike, the source gives them in different places.

Key:
[1] = tested on: histamine aerosol induced bronchoconstriction; experiment: Bronchodilator Activity (protection of conscious guinea pigs against histamine aerosol); assay type: in vivo; conditions: for inhibition in vivo at 60 mg/kg: Cavia porcellus, 1 h, read-out: % Protection
Protocol: Subsequent to this administration, each animal is challenged with histamine aerosol. […] Immediately after the container is subjected to the histamine spray the animal is placed within it. At the end of one minute of exposure, the respiratory status, which is a reflection of bronchoconstriction, is evaluated. Evaluation levels are designated and scored as normal breathing (0), slight deepened breathing (1), labored breathing (2), severely labored breathing and […] (3) and unconsciousness (4). Each group of animals contains 8 to 10 individual and a control group containing the same approximate number is used. […] The dose, which is given orally, is 60 mg./kg. and the animals are challenged with histamine 60 minutes later.

[2] = tested on: collagen induced platelet aggregation; experiment: In Vitro Inhibition of Platelet Aggregation (collagen induced, rabbit platelet-rich plasma); assay type: cell-based; conditions: Oryctolagus cuniculus, 10 min; for inhibition at 60 µM: 6 × 10^^-5 mol./l.; for inhibition at 6 µM: 6 × 10^^-6 mol./l.; for inhibition at 600 µM: 6 × 10^^-4 mol./l.
Protocol: The ability of the compounds of the present invention to inhibit platelet aggregation in vitro is measured according to the method of Born, et al., J. Physiol., 168, 178 (1963) and comprises the following procedure: Anesthetized male rabbits are bled from a carotid artery into plastic centrifuge tubes containing 0.1 volume 3% sodium citrate. Platelet-rich plasma is separated by centrifugation at 100 G for 10 minutes at 20° C. […] After 10 minutes of incubation with the platelet-rich plasma at room temperature, collagen, a protein known to cause platelet aggregation, is added (0.27 ml. collagen/4 ml. plasma) and changes in the optical density are followed with a Spectronic 20 colorimeter attached to a Houston Instrument TY Recorder. Platelet aggregation is indicated by a decrease in optical density. The relative potency of the compounds of the present invention are thus rated on their ability to inhibit (percent) collagen induced platelet aggregation.

[3] = tested on: collagen induced platelet aggregation; experiment: In Vivo Inhibition of Platelet Aggregation (collagen induced aggregation in plasma of dosed dogs); parameters: species or system mongrel dogs; conditions: for Inhibition to Collagen, High: high collagen (1:20 dilution); for Inhibition to Collagen, Low: low collagen (1:40-50 dilution)
Protocol: The capacity of the compounds of the present invention to inhibit platelet aggregation in a modified in vivo test is measured by the following procedure: Unanesthetized fasted adult mongrel dogs of either sex are dosed orally (P.O.) or intravenously (I.V.) with the particular test compound. Blood samples are taken at hourly intervals and placed in plastic centrifuge tubes containing 0.1 volume 3% sodium citrate. Platelet-rich plasma is separated by centrifugation at 100 G for 10 minutes at 20° C. and treated with a collagen suspension in saline. The effect of two different levels of collagen concentration are examined; the first is a 1:20 dilution, i.e. 1 ml. of collagen suspension per 20 ml. of platelet-rich plasma (high dose), and the second, a 1:40-50 dilution (low dose). Changes in optical density are then followed with a Spectronic 20 colorimeter attached to a Houston Instrument TY Recorder. Platelet aggregation is indicated by a decrease in optical density. […] Measurements are carried out on the hourly samples, allowing for the determination of a duration of the initial effect.

[4] = 60 mg./kg. oral, histamine challenge 60 minutes later

Work on `CCc1c(-c2cccc(NC(C)=O)c2)ncnc1N(CC)CC` yielded an inhibition in vivo at 60 mg/kg [1, 4] of 35%.
`CCN(CC)c1ncnc(-c2cccc(NC(C)=O)c2)c1C` gave an inhibition in vivo at 60 mg/kg [1, 4] of 43%.
`CCCc1c(-c2cccc(NC(C)=O)c2)ncnc1N(CC)CC` showed an inhibition in vivo at 60 mg/kg ([1]; po) of 29%.
`CCc1c(-c2cccc(NC(C)=O)c2)ncnc1N(C)C` gave an inhibition in vivo at 60 mg/kg [1, 4] of 10%.
Work on `CCCN(CCC)c1ncnc(-c2cccc(NC(C)=O)c2)c1C` yielded an inhibition in vivo at 60 mg/kg [1, 4] of 17%.
Molecule `CCN(CC)c1cc(-c2cccc(NC(=O)C(C)C)c2)ncn1` [4-diethylamino-6-(m-isobutrylaminophenyl)pyrimidine] has an inhibition in vivo at 60 mg/kg ([1]; po) of 22%.
Molecule `CCN(CC)c1cc(-c2ccco2)ncn1` [Ar=2-furyl; R1=C2H5; R2=C2H5; R3=H, 4-Diethylamino-6-(2-furyl)pyrimidine hydrochloride] has an inhibition in vivo at 60 mg/kg [1, 4] of 15%.
In the case of `CCc1c(-c2ccc3ccccc3c2)ncnc1N(CC)CC` [Ar=2-naphthyl; R1=C2H5; R2=C2H5; R3=C2H5, 4-Diethylamino-5-ethyl-6-(2-naphthyl)pyrimidine hydrochloride], the inhibition in vivo at 60 mg/kg ([1]; po) is reported as 47%.
`CCN(CC)c1cc(-c2ccc(NC(C)=O)cc2)ncn1` [Ar=4-CH3CONHC6H4; R1=C2H5; R2=C2H5; R3=H, 4-diethylamino-6-(p-acetylaminophenyl)pyrimidine] showed an inhibition in vivo at 60 mg/kg ([1]; po) of 56%.
`CCN(CC)c1cc(-c2ccc(OC)cc2)ncn1` [Ar=4-CH3OC6H4; R1=C2H5; R2=C2H5; R3=H, 4-diethylamino-6-(p-methoxyphenyl)pyrimidine] was tested, and the inhibition at 60 µM [2] was 86%, the inhibition at 6 µM [2] was 42% and the “Inhibition to Collagen, High” value ([3]; 10 mg./kg. I.V.) was “None (none (0-15%))”. The “Inhibition to Collagen, Low” value ([3]; 10 mg./kg. I.V.) was “None (none (0-15%))”, the “Inhibition to Collagen, High” value ([3]; 40 mg./kg. P.O.) was “Partial (partial (15-95%))” and the Duration ([3]; 40 mg./kg. P.O., line with high collagen result) was 1 h. For the same molecule, the Duration ([3]; 40 mg./kg. P.O., line with low collagen result) was 4 h and the “Inhibition to Collagen, Low” value ([3]; 40 mg./kg. P.O.) was “Complete (complete (95-100%))”.
`CCc1c(-c2ccccc2)ncnc1N(CC)CC` [Ar=C6H5; R1=C2H5; R2=C2H5; R3=C2H5, 4-Diethylamino-5-ethyl-6-phenylpyrimidine Hydrochloride] showed an inhibition at 6 µM [2] of 48%.
In the case of `CCN(CC)c1ncnc(-c2ccccc2)c1C` [Ar=C6H5; R1=C2H5; R2=C2H5; R3=CH3, 4-diethylamino-5-methyl-6-phenylpyrimidine], the inhibition at 6 µM [2] is reported as 80%.
`CCN(CC)c1ncnc(-c2ccccc2)c1C(C)C` [Ar=C6H5; R1=C2H5; R2=C2H5; R3=i-C3H7] showed an inhibition at 6 µM [2] of 63%.
`CCCc1c(-c2ccccc2)ncnc1N(CC)CC` [Ar=C6H5; R1=C2H5; R2=C2H5; R3=n-C3H7] was tested, and the inhibition at 6 µM [2] was 55%.
For `CCNc1cc(-c2ccccc2)ncn1` [Ar=C6H5; R1=C2H5; R2=H; R3=H, 4-ethylamino-6-phenylpyrimidine], the inhibition at 600 µM [2] was 99%, the inhibition at 60 µM [2] was 91% and the inhibition at 6 µM [2] was 99%.
In the case of `CCN(CC(F)(F)F)c1cc(-c2ccccc2)ncn1` [Ar=C6H5; R1=CF3CH2; R2=C2H5; R3=H, 4-[Ethyl(2,2,2-trifluoroethyl)amino]-6-phenylpyrimidine hydrochloride], the inhibition at 600 µM [2] is reported as 65%, the inhibition at 60 µM [2] is reported as 39% and the inhibition at 6 µM [2] is reported as 34%.
`Cl.FC(F)(F)CNc1cc(-c2ccccc2)ncn1` [Ar=C6H5; R1=CF3CH2; R2=H; R3=H, 4-(2,2,2-Trifluoroethylamino)-6-phenylpyrimidine hydrochloride] showed an inhibition at 60 µM [2] of 83%, an inhibition at 6 µM [2] of 32% and a Duration ([3]; 10 mg./kg. I.V.) of 3 h. For the same molecule, the “Inhibition to Collagen, High” value ([3]; 10 mg./kg. I.V.) was “Complete (complete (95-100%))”, the Duration ([3]; 25 mg./kg. P.O.) was 3 h and the “Inhibition to Collagen, High” value ([3]; 25 mg./kg. P.O.) was “Partial (partial (15-95%))”. The Duration ([3]; 35 mg./kg. P.O.) was 4 h, the “Inhibition to Collagen, High” value ([3]; 35 mg./kg. P.O.) was “Complete (complete (95-100%))” and the “Inhibition to Collagen, Low” value ([3]; 35 mg./kg. P.O.) was “Complete (complete (95-100%))”.
With `CCc1c(-c2ccccc2)ncnc1N(C)C` [Ar=C6H5; R1=CH3; R2=CH3; R3=C2H5] the inhibition at 6 µM [2] was 50%.
`CN(C)c1cc(-c2ccccc2)ncn1` [Ar=C6H5; R1=CH3; R2=CH3; R3=H] showed an inhibition at 600 µM [2] of 99% and an inhibition at 60 µM [2] of 55%.
`CCCc1c(-c2ccccc2)ncnc1N(C)C` [Ar=C6H5; R1=CH3; R2=CH3; R3=n-C3H7] showed an inhibition at 6 µM [2] of 40%.
`CNc1cc(-c2ccccc2)ncn1` [Ar=C6H5; R1=CH3; R2=H; R3=H] gave an inhibition at 600 µM [2] of 99% and an inhibition at 60 µM [2] of 66%.
`Nc1cc(-c2ccccc2)ncn1` [Ar=C6H5; R1=H; R2=H; R3=H, 4-amino-6-phenylpyrimidine] gave an inhibition at 600 µM [2] of 75% and an inhibition at 60 µM [2] of 65%.
`CCN(CCO)c1cc(-c2ccccc2)ncn1.Cl` [Ar=C6H5; R1=HO(CH2)2; R2=C2H5; R3=H, 4-[Ethyl(2-hydroxyethyl)amino]-6-phenylpyrimidine hydrochloride] gave an inhibition at 600 µM [2] of 99%, an inhibition at 60 µM [2] of 97% and an inhibition at 6 µM [2] of 35%. For the same molecule, the Duration ([3]; 10 mg./kg. I.V.) was 3 h, the “Inhibition to Collagen, High” value ([3]; 10 mg./kg. I.V.) was “Complete (complete (95-100%))” and the “Inhibition to Collagen, Low” value ([3]; 10 mg./kg. I.V.) was “Complete (complete (95-100%))”. The Duration ([3]; 25 mg./kg. P.O.) was 2 h, the “Inhibition to Collagen, High” value ([3]; 25 mg./kg. P.O.) was “Complete (complete (95-100%))” and the “Inhibition to Collagen, Low” value ([3]; 25 mg./kg. P.O.) was “Complete (complete (95-100%))”.
Molecule `CN(CCO)c1cc(-c2ccccc2)ncn1` [Ar=C6H5; R1=HO(CH2)2; R2=CH3; R3=H, 4-[Methyl(2-hydroxyethyl)amino]-6-phenylpyrimidine hydrochloride] has an inhibition at 600 µM [2] of 99%, an inhibition at 60 µM [2] of 99% and an inhibition at 6 µM [2] of 28%.
`OCCN(CCO)c1cc(-c2ccccc2)ncn1` [Ar=C6H5; R1=HO(CH2)2; R2=HO(CH2)2; R3=H, 4-[Bis(2-hydroxyethyl)amino]-6-phenylpyrimidine hydrochloride] gave an inhibition at 600 µM [2] of 84% and an inhibition at 60 µM [2] of 27%.
Work on `CC(C)Nc1cc(-c2ccccc2)ncn1` [Ar=C6H5; R1=i-C3H7; R2=H; R3=H] yielded an inhibition at 60 µM [2] of 88% and an inhibition at 6 µM [2] of 29%.
Work on `CC(C)CNc1cc(-c2ccccc2)ncn1` [Ar=C6H5; R1=i-C4H9; R2=H; R3=H] yielded an inhibition at 60 µM [2] of 82% and an inhibition at 6 µM [2] of 17%.
Molecule `CC(C)CN(CC(C)C)c1cc(-c2ccccc2)ncn1` [Ar=C6H5; R1=i-C4H9; R2=i-C4H9; R3=H] has an inhibition at 600 µM [2] of 35%, an inhibition at 60 µM [2] of 24% and an inhibition at 6 µM [2] of 10%.
For `CCCN(CC)c1cc(-c2ccccc2)ncn1` [Ar=C6H5; R1=n-C3H7; R2=C2H5; R3=H, 4-(ethyl-n-propylamino)-6-phenylpyrimidine], the inhibition at 600 µM [2] was 99%, the inhibition at 60 µM [2] was 86% and the inhibition at 6 µM [2] was 79%.
`CCCN(C)c1cc(-c2ccccc2)ncn1` [Ar=C6H5; R1=n-C3H7; R2=CH3; R3=H] showed an inhibition at 60 µM [2] of 47% and an inhibition at 6 µM [2] of 39%.
`CCCN(CCC)c1ncnc(-c2ccccc2)c1CC` [Ar=C6H5; R1=n-C3H7; R2=n-C3H7; R3=C2H5] gave an inhibition at 6 µM [2] of 5%.
Work on `CCCN(CCC)c1ncnc(-c2ccccc2)c1C` [Ar=C6H5; R1=n-C3H7; R2=n-C3H7; R3=CH3] yielded an inhibition at 6 µM [2] of 11%.
Work on `CCCN(CCC)c1cc(-c2ccccc2)ncn1` [Ar=C6H5; R1=n-C3H7; R2=n-C3H7; R3=H] yielded an inhibition at 600 µM [2] of 83%, an inhibition at 60 µM [2] of 49% and an inhibition at 6 µM [2] of 41%.
`CCCCNc1cc(-c2ccccc2)ncn1` [Ar=C6H5; R1=n-C4H9; R2=H; R3=H] showed an inhibition at 60 µM [2] of 42% and an inhibition at 6 µM [2] of 30%.
Molecule `CCCCN(CCCC)c1cc(-c2ccccc2)ncn1` [Ar=C6H5; R1=n-C4H9; R2=n-C4H9; R3=H] has an inhibition at 60 µM [2] of 56% and an inhibition at 6 µM [2] of 35%.
For `CCc1c(O)ncnc1-c1ccccc1` [R3=C2H5, 4-hydroxy-5-ethyl-6-phenylpyrimidine], the inhibition in vivo at 60 mg/kg [1, 4] was 62% and the “activity as a bronchodilator (in words)” value ([1]; guinea pig, in vivo) was “unexpected, outstanding activity as a bronchodilator”.
`Cc1c(O)ncnc1-c1ccccc1` [R3=CH3] showed an inhibition in vivo at 60 mg/kg [1, 4] of 22%.
With `Oc1cc(-c2ccccc2)ncn1` [R3=H, 4-Hydroxy-6-phenylpyrimidine] the inhibition in vivo at 60 mg/kg ([1]; po) was 12%.
With `CC(C)c1c(O)ncnc1-c1ccccc1` [R3=i-C3H7] the inhibition in vivo at 60 mg/kg ([1]; po) was 16%.
For `CCCc1c(O)ncnc1-c1ccccc1` [R3=n-C3H7], the inhibition in vivo at 60 mg/kg [1, 4] was 25%.
